For series [1], the target named is T1, Nuclear receptor subfamily 2 group E member 1 (Homo sapiens, UniProt Q9Y466). Description: Agonist activity at human Gal4-fused TLX LBD expressed in human HEK293T cells coexpressing Gal4-VP16 assessed as repressor activity of receptor by measuring decrease in reporter activity at 30 uM measured after 14 hrs by Dual-Glo Luciferase assay. It is filed as cell-based.

The target of series [2] is T1, Nuclear receptor subfamily 2 group E member 1. The series can be described thus: Agonist activity at human Gal4-fused TLX LBD expressed in human HEK293T cells coexpressing Gal4-VP16 assessed as repressor activity of receptor by measuring decrease in reporter activity measured after 14 hrs by Dual-Glo Luciferase assay. It is filed as cell-based.
Series [3] has the same target. Conditions: filed as agonist, dose 100.0 µM.
The nature of series [4]: Solubility of the compound in DSF buffer in presence of 2% DMSO. Type of series: physicochemical.
Series [5] deals with T1, Nuclear receptor subfamily 2 group E member 1. Description: Agonist activity at TLX in human T98G cells assessed as upregulation of SIRT1 mRNA expression at 30 uM measured after 8 hrs by qRT-PCR analysis. Conditions: filed as agonist. Type of series: cell-based.
Series [6] concerns HEK-293T. Description: Effect on Gal4-VP16 plasmid transfected in human HEK293T cells assessed as reporter activity at 100 uM incubated for 14 hrs by luciferase assay. Type of series: functional, cell-based.
The subject of series [7] is T98G. The series can be described thus: Upregulation of TLX gene expression in human T98G cells at 30 uM measured after 8 hrs by qRT-PCR analysis. Type of series: functional, cell-based. (In general: Real-time PCR tracks product formation cycle by cycle.)
Series [8] deals with T1, Nuclear receptor subfamily 2 group E member 1. Description: Agonist activity at human full length Gal4-fused TLX transfected in human HEK293T cells coexpressing pFR-TAE-Luc assessed as repressor activity of receptor by measuring decrease in reporter activity by dual-glo luciferase assay. It is filed as cell-based.
For series [9] the target is unchanged. Description: Binding affinity to recombinant TLX LBD (unknown origin) by differential scanning fluorometry.
Series [10] relates to HEK-293T. The series can be described thus: Cytotoxicity against human HEK293T cells assessed as reduction in cell viability incubated for 24 hrs by WST-1 assay. It is filed as toxicity, cell-based.
The target in series [11] is T1, Nuclear receptor subfamily 2 group E member 1. Description: Agonist activity at TLX in human T98G cells assessed as upregulation of SIRT1 mRNA expression at 3 uM measured after 8 hrs by qRT-PCR analysis. It is filed as cell-based. Conditions: filed as agonist.
The nature of series [12]: Half life in Sprague-Dawley rat liver microsomes at 10 uM pretreated for 30 mins with NADPH regenerating system followed by incubation with microsomes for 60 mins by HPLC analysis. Type of series: ADME, Microsome. Conditions: time 90 min. In general terms: Liver microsomes are vesicles of endoplasmic reticulum, rich in cytochrome P450 enzymes.
The target of series [13] is T1, Nuclear receptor subfamily 2 group E member 1. The series can be described thus: Destabilization of recombinant TLX LBD (unknown origin) assessed as change in entropy at 100 uM by isothermal titration calorimetry. Conditions: filed as agonist. For orientation: ITC needs no label: the signal is the heat of the interaction.
For series [14], the system named is T98G. Description: Upregulation of TLX gene expression in human T98G cells at 3 uM measured after 8 hrs by qRT-PCR analysis. Type of series: functional, cell-based.
Series [15] concerns the target T1, Nuclear receptor subfamily 2 group E member 1. Description: Destabilization of recombinant TLX LBD (unknown origin) assessed as change in enthalpy at 100 uM by isothermal titration calorimetry. Conditions: filed as agonist.
Series [16] has the same target. The series can be described thus: Agonist activity at TLX (unknown origin) assessed as induction of receptor oligomerization using sGFP-labeled TLX LBD as acceptor and biotin TLX LBD as donor measured after 20 hrs incubation at RT and 2 hrs at 37 degC by HTRF assay.
Series [17] has the same target. Description: Agonist activity at human full length Gal4-fused TLX transfected in human HEK293T cells coexpressing pFR-TAE-Luc assessed as repressor activity of receptor by measuring decrease in reporter activity at 0.03 to 30 uM by dual-glo luciferase assay. Type of series: cell-based. Conditions: dose 0.03-30 µM.
For series [18], the system named is HEK-293T. The series can be described thus: Cytotoxicity against human HEK293T cells assessed as reduction in cell viability at >10 uM incubated for 24 hrs by WST-1 assay. It is filed as toxicity, cell-based.
For series [19], the target named is T1, Nuclear receptor subfamily 2 group E member 1. Description: Agonist activity at human Gal4-fused TLX LBD expressed in human HEK293T cells coexpressing Gal4-VP16 assessed as repressor activity of receptor by measuring decrease in reporter activity at 0.03 to 30 uM measured after 14 hrs by Dual-Glo Luciferase assay. It is filed as cell-based. Conditions: filed as agonist, dose 0.03-30 µM.

In series [20] the test system is T98G. Description: Upregulation of TLX gene expression in human T98G cells at 10 uM measured after 8 hrs by qRT-PCR analysis. Type of series: functional, cell-based.
Series [21] can be described thus: Drug degradation in Sprague-Dawley rat liver microsomes at 10 uM pretreated for 30 mins with NADPH regenerating system followed by incubation with microsomes for 30 mins by HPLC analysis. Conditions: time 60 min, read-out: Drug degradation. Type of series: ADME, Microsome.
Series [22] relates to HEK-293T. The series can be described thus: Cytotoxicity against human HEK293T cells assessed as reduction in cell viability at >=10 uM incubated for 24 hrs by WST-1 assay. Type of series: toxicity, cell-based.

Molecules are shown by their SMILES. Active and inactive are the calls of the source. The rule behind the calls is not given here.

The text below walks through data of ChEMBL document CHEMBL5042518, “Design of a Potent TLX Agonist by Rational Fragment Fusion” (J Med Chem, 2022).

T1 sequence (Q9Y466 whole entry, the tested form may be a part): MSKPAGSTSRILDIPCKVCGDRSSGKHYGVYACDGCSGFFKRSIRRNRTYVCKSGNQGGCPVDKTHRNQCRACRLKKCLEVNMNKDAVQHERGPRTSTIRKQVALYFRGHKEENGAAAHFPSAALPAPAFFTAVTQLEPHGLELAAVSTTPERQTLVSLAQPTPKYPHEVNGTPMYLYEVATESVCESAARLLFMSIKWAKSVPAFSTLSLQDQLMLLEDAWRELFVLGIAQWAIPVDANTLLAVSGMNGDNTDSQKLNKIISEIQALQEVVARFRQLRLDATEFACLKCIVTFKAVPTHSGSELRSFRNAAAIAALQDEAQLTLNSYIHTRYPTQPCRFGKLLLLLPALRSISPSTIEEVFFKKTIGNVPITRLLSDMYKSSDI

On to `Cc1cn(-c2cc(NC(=O)C3CCc4[nH]c5ccccc5c4C3)cc(C(F)(F)F)c2)cn1` (stereo not drawn), for which the outcome in [1] was inactive.

For `CC(=O)Nc1cc(-n2cnc(C)c2)cc(C(F)(F)F)c1`, in [2], the 50% effective concentration (EC50) (usually the concentration needed to bring the measured effect to its halfway point) stood at 11 µM.

Regarding `Cc1cn(-c2cc(NC(=O)COc3cccc4ccccc34)cc(C(F)(F)F)c2)cn1`, the result in series [1] was inactive.

Consider `Cc1cn(-c2cc(N)cc(C(F)(F)F)c2)cn1`, for which the ΔTm (usually the shift of the melting midpoint relative to a reference) in series [3] was -1.69 °C. Moreover, in series [2], the concentration giving a half-maximal response (EC50) is 20 µM. Further, the solubility result in [4] is “Soluble”. In series [5], the outcome was Active. The result in the series with HEK-293T [6] and in the series with T98G [7] was inactive.

For the compound `COc1cc(N)c(Cl)cc1C(=O)Nc1cc(-n2cnc(C)c2)cc(C(F)(F)F)c1`, in [2], the concentration giving a half-maximal response (EC50) was 3 µM.

As for `CCCCOc1cc(C(=O)Nc2cc(-n3cnc(C)c3)cc(C(F)(F)F)c2)c2ccccc2n1`, the values for the EC50 in series [8], in series [2] and in series [16] were 0.7 µM, 0.25 µM and 5 µM, respectively. In addition, the Kd (as a rule, a measure of binding affinity in units of concentration) in series [9] came to 1.6 µM. Moreover, the Activity entry in the series with HEK-293T [10] was “Non-Toxic”. Moreover, the solubility entry in series [4] is “Soluble”. Besides, the outcome in series [11] was Active. Besides, the half-life (in general, how long it takes for the measured level to halve) at 10 µM in series [12] worked out at 2.37 h. For the same compound, the TdeltaS in series [13] was 515 kJ/mol. The result in the series with HEK-293T [6] and with T98G [14] was inactive. Further, in series [15], the deltaH worked out at 477 kJ/mol.

For the compound `CC1(C)CC=C(c2ccccc2)c2cc(/C=C/c3ccc(C(=O)O)cc3)ccc21`, the outcome in [17] was inactive. Moreover, the solubility result in series [4] is “Soluble”. In addition, the Activity result in the series with HEK-293T [18] is “Toxic”. Further, the outcome in series [19] was Active.

As to `Cc1cn(-c2cc(NC(=O)N3CCN(c4ccc(O)cc4)CC3)cc(C(F)(F)F)c2)cn1`, the EC50 in series [2] is 5 µM.

For the compound `Cc1cn(-c2cc(NC(=O)CCCc3ccc(-c4ccccc4)cc3)cc(C(F)(F)F)c2)cn1`, the EC50 in series [2] came to 1.2 µM.

For the compound `Cc1cc(C(=O)N2CCN(C(c3ccccc3)c3ccccc3)CC2)nn1C`, in series [3], the ΔTm was -1.08 °C. Further, the outcome in the series with T98G [20] was inactive. For the same compound, the metabolised at 1 h, 10 µM in series [21] worked out at 100%. In the series on HEK-293T [10], the Activity result is on record as “Non-Toxic”.

With `Cc1cn(-c2cc(NC(=O)C(c3ccccc3)c3ccccc3)cc(C(F)(F)F)c2)cn1`, in the series on HEK-293T [22], the Activity entry is “Toxic”.
